In patent publication US20060084615A1, “Puerarin derivatives and their medical uses” (priority 2004, published 2006):

Key:
[1] = tested on: myocardial ischemic rats induced by posterior pituitary injection; experiment: Acute myocardial ischemia induced by posterior pituitary extract injection, ECG T wave variation; type: in vivo, SD rats; conditions: for Amplitude of T wave: i.g. 5 days plus day 6, X ± SD, n = 10; for Effect against myocardial ischemia in rats induced by posterior pituitary injection: doses 0.8 g/kg puerarin, 1.12 g/kg 4ac, 1.20 g/kg 5ac, 1.28 g/kg 6ac (equivalent to 0.8 g/kg puerarin)
Procedure: Puerarin was purchased from Beijing Union Pharmaceutical Factory (PRC). Puerarin derivatives 4ac, 5ac and 6ac were supplied by The Hong Kong Polytechnic University. The puerarin was dissolved in 1:1 of PEG400 and sterilized distilled water to make 0.8 g/kg body weight, 10 ml/kg body weight solutions for i.g. feeding.
Puerarin derivative 4ac was dissolved in 1:1 of PEG400 and sterilized distilled water to make 1.12 g/kg, 10 ml/kg solution for intra-gastro (i.g.) feeding. Puerarin derivative 5ac was dissolved in 1:1 of PEG400 and sterilized distilled water to make 1.20 g/kg, 10 ml/kg solution for i.g. feeding. Puerarin derivative 6ac was dissolved in 1:1 of PEG400 and sterilized distilled water to make 1.28 g/kg, 10 ml/kg solution for ig feeding. The concentrations of each solution were selected such that 0.8 g/kg of equivalent puerarin will be administered to each animal.
Propranolol hydrochloride at 10 mg/tablet, was from the Shantou Jinshi Pharmaceuticals (PRC, batch no: 020802). Propranolol hydrochloride is a drug prescribed for myocardial ischemia. It is expected to decrease the T wave elevation in ECG during myocardial ischemia. The drug was dissolved in sterilized distilled water to make a 0.2 mg/ml, 10 ml/kg solution for i.g. feeding.
Sixty SPF grade SD rats weighing 200±20 g of both sexes were grouped evenly into six groups according to their weight and sex, and fed i.g. according to the following protocol: • a) Normal: distilled water 10 ml/kg; • b) Positive control: propranolol hydrochloride […], 10 ml/kg; • c) Puerarin solution: puerarin 0.8 g/kg, 10 ml/kg; • d) Puerarin derivative 4ac solution: 4ac 1.12 g/kg, 10 ml/kg; • e) Puerarin derivative 5ac solution: 5ac 1.20 g/kg, 10 ml/kg; • f) Puerarin derivative 6ac solution: 6ac 1.28 g/kg, 10 ml/kg.
The rats were administered the respective treatments for five consecutive days. On the sixth day, one hour after the administration of the treatment, the rats were anesthetized with 3% pentobarbital sodium at a dose of 40 mg/kg i.p. Two terminal leads were connected to the rats to record the normal electrocardiograph (ECG).
When the ECG reading became steady, 1 u/kg of posterior pituitary extract injection (obtained from the Nanjing Xintian Biochemical Pharmaceuticals Company Ltd; batch no 020601) was given intraveneously at the tail vein. Posterior pituitary extract induces acute myocardial ischemia. On ECG, the extract causes the T wave to elevate, flatten and sometimes invert. It also elevates the ST segment and lengthens the PR and QT intervals.
The ECG was recorded immediately for 30 minutes. The variations in T wave were calculated and analyzed statistically.

[2] = in vivo
Procedure: Agilent 1100 HPLC, DAD diode, HP1100 chromatography workstation and Agilent XDB-C18 column (250 mm×4.6 mm D, 5 μm) were used. The pre-column is Agilent XDB-C18 column (12.5 mm×4.6 mm D, 5 μm). Gradient elution was carried according to Table 1 below: […]
Sprague-Dawley (SD) rats weighing 180±20 g, both male and female were provided by the Laboratory Animal Centre of the Guangzhou Traditional Chinese Medicine (TCM) University.
Two hundred and sixty SD rats were randomly divided into 20 groups with 13 rats in each group. The rats were fasted for one day before the test.
Puerarin, 4ac, 5ac and 6ac was dissolved in sterilized water to produce suspension of final dosage of 400 mg/kg, 560 mg/kg, 600 mg/kg and 640 mg/kg, 10 ml/kg and administered orally to the rats.
At t=10, 20, 30, 45, 60, 90, 120 min, 2 h, 4 h, 6 h, 7 h, 8 h and 12 h after administration, 3 ml of blood was collected from the femoral vein of each animal and kept in a centrifuge tube at room temperature for 0.5 h. The blood was centrifuged at 3000 r/min for 15 min and the serum was taken for analysis.
Serum (0.5 ml) was added with 0.2 ml methanol and mixed with a vortex mixer for 1 min. The mixture was then centrifuged at 3000 r/min for 15 min. The supernatant was dried by nitrogen gas flow and the residue was dissolved in 0.2 ml methanol. The mixture was again centrifuged at 10000 r/min for 10 min and the supernatant subjected to HPLC analysis.
The samples were treated, applied and as stated in section 2.2, and the serum concentration of each compound was calculated by the one-point external standard method. The calculated data were processed using the 3P97 pharmacokinetics statistics software supplied by the Mathematics Committee of the China Pharmacology Association.

[3] = 5 s after posterior pituitary injection
[4] = 15 s after posterior pituitary injection
[5] = 30 s after posterior pituitary injection
[6] = 2 min after posterior pituitary injection
[7] = 5 min after posterior pituitary injection
[8] = 10 min after posterior pituitary injection
[9] = oral suspension, SD rats, serum puerarin by HPLC, puerarin 400, 4ac 560, 5ac 600, 6ac 640 mg/kg

SMILES	Amplitude of T wave [1, 3] [μV]	Amplitude of T wave [1, 4] [μV]	Amplitude of T wave [1, 5] [μV]	Amplitude of T wave [1, 6] [μV]	Amplitude of T wave [1, 7] [μV]	Amplitude of T wave [1, 8] [μV]	Pharmacokinetic compartment model fitted (3P97 software) ([2]; rat, in vivo, po)	AUC(0-∞) = area under concentration-time curve ([2]; rat, in vivo, po, 640 mg/kg)	CL = total body clearance ([2]; rat, in vivo, po, 640 mg/kg) [mg/kg/min/µg/mL]	Effect against myocardial ischemia in rats induced by posterior pituitary injection [1]	Pharmacokinetic compartment model fitted (3P97 software) ([2]; oral, SD rats)	further results
CC(C)NCC(O)COc1cccc2ccccc12.Cl (stereo not shown) [+ve control, Propranolol hydrochloride, reference compound]	16.11 ± 5.30	18.51 ± 9.26	22.10 ± 11.23	30.41 ± 11.58	26.62 ± 10.99	22.09 ± 11.31	–	–	–	–	–	–
CC(=O)OCC1OC(c2c(O)ccc3c(=O)c(-c4ccc(O)cc4)coc23)C(OC(C)=O)C(OC(C)=O)C1OC(C)=O (stereo not shown) [Compound 4ac, 2″,3″,4″,6″-0-tetraacetylpuerarin]	15.09 ± 7.62	23.23 ± 10.69	35.40 ± 10.93	36.51 ± 16.02	25.60 ± 14.23	25.41 ± 10.21	one-compartment open model	6104.81 ± 275.29 (μg/ml)min	0.1030 ± 0.0163	effective	–	C(max) relative to that of puerarin ([2]; both, Sprague-Dawley, rat, in vivo, po): 1.90 folds; AUC compared with puerarin (t test) ([2]; rat, in vivo, po): significantly greater; AUC relative to that of puerarin ([2]; rat, in vivo, po): 2.24 folds; Bioavailability compared with puerarin ([2]; rat, in vivo, po): higher than puerarin and other derivatives
CC(=O)OCC1OC(c2c(OC(C)=O)ccc3c(=O)c(-c4ccc(O)cc4)coc23)C(OC(C)=O)C(OC(C)=O)C1OC(C)=O (stereo not shown) [Compound 5ac, 7,2″,3″,4″,6″-0-pentaacetylpuerarin]	19.09 ± 6.20	29.42 ± 9.39	37.61 ± 13.43	40.11 ± 16.04	24.50 ± 13.63	24.39 ± 14.28	two-compartment open model	4566.95 ± 762.64 (μg/ml)min	0.1011 ± 0.0425	effective	–	t1/2(a) = half-life of absorption ([2]; rat, in vivo, po, 640 mg/kg): 0.368613 ± 0.311893 h; t1/2(β) = half-life of clearance ([2]; rat, in vivo, po, 640 mg/kg): 7.0838 ± 4.228 h
O=c1c(-c2ccc(O)cc2)coc2c([C@@H]3O[C@H](CO)[C@@H](O)[C@H](O)[C@H]3O)c(O)ccc12 [Puerarin]	18.06 ± 10.09	25.69 ± 11.21	31.22 ± 14.59	39.20 ± 16.11	29.10 ± 16.23	25.01 ± 10.40	–	2729.94 ± 491.99 (μg/ml)min	0.2032 ± 0.0541	effective	two-compartment open model	half-life ([2]; both, Sprague-Dawley, rat, in vivo, po, 640 mg/kg, t1/2(a) = half-life of absorption): 0.89 ± 0.189 h; half-life ([2]; both, Sprague-Dawley, rat, in vivo, po, 640 mg/kg, t1/2(β) = half-life of clearance): 1.015 ± 0.00719 h
CC(=O)OC[C@H]1O[C@@H](c2c(OC(C)=O)ccc3c(=O)c(-c4ccc(OC(C)=O)cc4)coc23)[C@H](OC(C)=O)[C@@H](OC(C)=O)[C@@H]1OC(C)=O [Compound 6ac, Hexa-0-acetyl puerarin]	16.33 ± 9.18	29.09 ± 16.50	39.12 ± 15.21	41.05 ± 15.60	29.14 ± 10.60	22.11 ± 9.81	–	–	–	effective	two-compartment open model	AUC(0-∞) = area under concentration-time curve [2, 9]: 3149.69 ± 467.26 (μg/ml)min; C (max) = maximum concentration reached by the compound [2, 9]: 4932.4 ± 69.5 ng/mL; CL = total body clearance [2, 9]: 0.1696 ± 0.1206 mg/kg/min/µg/mL; T(peak) = time the compound takes to reach the absorption peak [2, 9]: 81.39 ± 10.02 min; t1/2(a) = half-life of absorption [2, 9]: 1.86617 ± 1.811 h; t1/2(β) = half-life of clearance [2, 9]: 44.4162 ± 6.3323 h
